Reference: ChEMBL document CHEMBL5154923 (J Med Chem, 2022)
Each block holds one compound with its values, some of them ahead of it. Calls of active or inactive are those of the source. The rule behind the calls is not given here.

Legend:
[1] = Binding affinity to wild type full length human CK2alpha2 (1 to 350 residues) expressed in mammalian expression system assessed as change in melting temperature by SYPRO orange dye based DSF assay
[2] = molecular target: T1, Serine/threonine-protein kinase 17A (Homo sapiens, UniProt Q9UEE5); assay: Inhibition of human N-terminal His-tagged/ TEV cleavage fused DRAK1 (39 to 369 residues) transfected in HEK293T cells using NanoBRET NanoGlo as substrate incubated for 2 hrs by NanoBRET assay; type: cell-based
T1 sequence (Q9UEE5 whole entry): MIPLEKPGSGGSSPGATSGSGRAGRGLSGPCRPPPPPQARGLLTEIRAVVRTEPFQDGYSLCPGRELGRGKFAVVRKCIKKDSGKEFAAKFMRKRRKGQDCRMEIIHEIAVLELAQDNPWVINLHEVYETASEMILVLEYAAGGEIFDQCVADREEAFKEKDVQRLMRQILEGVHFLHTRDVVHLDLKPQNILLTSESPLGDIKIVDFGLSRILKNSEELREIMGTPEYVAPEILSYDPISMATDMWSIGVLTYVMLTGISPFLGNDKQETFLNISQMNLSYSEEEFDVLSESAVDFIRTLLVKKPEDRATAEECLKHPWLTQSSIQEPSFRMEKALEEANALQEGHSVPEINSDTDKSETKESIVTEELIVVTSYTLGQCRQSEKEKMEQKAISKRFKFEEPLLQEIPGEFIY

[3] = molecular target: T2, Serine/threonine-protein kinase 17A (Homo sapiens) (UniProt Q9UEE5); assay: Binding affinity to human N-terminal His-tagged/ TEV cleavage fused DRAK1 (39 to 369 residues) expressed in Escherichia coli assessed as change in melting temperature at 10 uM by SYPRO orange dye based DSF assay
T2 sequence (whole entry): T1 sequence (Q9UEE5 whole entry)

[4] = molecular target: Casein kinase II subunit alpha (Homo sapiens, UniProt P68400); assay: Binding affinity to wild type full length human CK2alpha1 (1 to 391 residues) expressed in mammalian expression system assessed as change in melting temperature at 10 uM by SYPRO orange dye based DSF assay
Sequence of Casein kinase II subunit alpha (P68400 whole entry, looked up, the tested form may be a part): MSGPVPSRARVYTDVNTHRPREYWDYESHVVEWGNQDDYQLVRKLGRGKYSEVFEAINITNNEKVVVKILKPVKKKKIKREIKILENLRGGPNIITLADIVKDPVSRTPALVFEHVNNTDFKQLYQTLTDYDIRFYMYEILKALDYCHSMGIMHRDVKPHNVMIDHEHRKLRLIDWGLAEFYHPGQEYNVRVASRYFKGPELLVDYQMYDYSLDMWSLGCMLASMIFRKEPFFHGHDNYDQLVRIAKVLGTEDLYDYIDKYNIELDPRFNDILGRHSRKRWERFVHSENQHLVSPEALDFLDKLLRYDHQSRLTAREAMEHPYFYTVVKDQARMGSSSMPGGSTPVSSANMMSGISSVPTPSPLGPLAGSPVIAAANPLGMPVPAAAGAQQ

HEK-293T [5] = assay: Cytotoxicity against human HEK293T cells at 1 uM incubated for 36 hrs; type: toxicity, cell-based
[6] = Cytotoxicity against human MRC9 cells at 1 uM incubated for 36 hrs; type: toxicity, cell-based; details: mrc9, 36 h
LN-229 = assay: Antiproliferative activity against human LN-229 cells assessed as reduction in cell viability after 1 to 7 days by resazurin dye based fluorimetric analysis; type: functional
[7] = molecular target: T2, Serine/threonine-protein kinase 17A (Homo sapiens); assay: Inhibition of human N-terminal His-tagged/ TEV cleavage fused DRAK1 (39 to 369 residues) expressed in Escherichia coli assessed as change in entropy by isothermal titration calorimetry
[8] = Induction of morphological changes in human MRC9 cells assessed as microtubule damage at 1 to 10 uM incubated for 18 hrs by confocal fluorescence microscopic analysis; type: toxicity, cell-based; details: mrc9, 18 h, dose 1-10 µM
HEK-293T [9] = assay: Induction of morphological changes in human HEK293T cells assessed as mitochondrial damage at 1 to 10 uM incubated for 18 hrs by confocal fluorescence microscopic analysis; type: toxicity, cell-based; details: dose 1-10 µM
D-247MG = assay: Antiproliferative activity against human D-247MG cells assessed as reduction in cell viability after 1 to 7 days by resazurin dye based fluorimetric analysis; type: functional
[10] = molecular target: T1, Serine/threonine-protein kinase 17A; assay: Inhibition of human N-terminal His-tagged/ TEV cleavage fused DRAK1 (39 to 369 residues) expressed in Escherichia coli using KKLNRTLSFAEPG peptide as substrate in presence of [gamma-33P]ATP by radiometric based scintillation proximity assay
HEK-293T [11] = assay: Cytotoxicity against human HEK293T cells at 1 uM incubated for 18 hrs; type: toxicity, cell-based
T98G [12] = assay: Antiproliferative activity against human T98G cells assessed as reduction in cell viability measured after 1 to 7 days by resazurin dye based fluorimetric analysis; type: functional
U2OS [13] = assay: Cytotoxicity against human U2OS cells assessed as increase in total apoptotic cells incubated for 36 hrs by Annexin V staining based method; type: functional, cell-based
[14] = Cytotoxicity against human MRC9 cells assessed as increase in total apoptotic cells incubated for 36 hrs by Annexin V staining based method; type: toxicity, cell-based
[15] = Cytotoxicity against human MRC9 cells assessed as increase in total apoptotic cells at 10 uM incubated for 36 hrs by Annexin V staining based method; type: toxicity, cell-based; details: mrc9, 36 h
HEK-293T [16] = assay: Cytotoxicity against human HEK293T cells assessed as increase in total apoptotic cells at 10 uM incubated for 36 hrs by Annexin V staining based method; type: toxicity, cell-based
HEK-293T [17] = assay: Induction of morphological changes in human HEK293T cells assessed as microtubule damage at 1 to 10 uM incubated for 18 hrs by confocal fluorescence microscopic analysis; type: toxicity, cell-based; details: dose 1-10 µM
[18] = Cytotoxicity against human HEK293T cells assessed as increase in total apoptotic cells incubated for 36 hrs by Annexin V staining based method; type: toxicity, cell-based, HEK-293T
[19] = molecular target: T2, Serine/threonine-protein kinase 17A (Homo sapiens); assay: Inhibition of human N-terminal His-tagged/ TEV cleavage fused DRAK1 (39 to 369 residues) expressed in Escherichia coli assessed as gibbs free energy change by isothermal titration calorimetry
[20] = molecular target: T1, Serine/threonine-protein kinase 17A; assay: Binding affinity to human N-terminal His-tagged/ TEV cleavage fused DRAK1 (39 to 369 residues) expressed in Escherichia coli by isothermal titration calorimetry
[21] = Induction of morphological changes in human MRC9 cells assessed as mitochondrial damage at 1 to 10 uM incubated for 18 hrs by confocal fluorescence microscopic analysis; type: toxicity, cell-based; details: mrc9, 18 h, dose 1-10 µM
[22] = molecular target: T2, Serine/threonine-protein kinase 17A (Homo sapiens); assay: Inhibition of human N-terminal His-tagged/ TEV cleavage fused DRAK1 (39 to 369 residues) expressed in Escherichia coli assessed as change in enthalpy by isothermal titration calorimetry
U2OS [23] = assay: Cytotoxicity against human U2OS cells assessed as increase in total apoptotic cells at 10 uM incubated for 36 hrs by Annexin V staining based method; type: functional, cell-based
HEK-293T [24] = assay: Cytotoxicity against human HEK293T cells assessed as increase in total apoptotic cells at 10 uM incubated for 18 hrs by Annexin V staining based method; type: toxicity, cell-based
T98G [25] = assay: Induction of morphological changes in human T98G cells assessed as change in cell shape at 12.5 uM incubated for 5 days by microscopy analysis; type: functional, cell-based; details: time 5.0 day
LN-18 = assay: Antiproliferative activity against human LN-18 cells assessed as reduction in cell viability after 1 to 7 days by resazurin dye based fluorimetric analysis; type: functional

- ΔTm [1]: 2.5 °C
- IC50 [2]: > 45000 nM
- ΔTm [3]: 3 °C
- ΔTm [4]: 1.1 °C
SMILES: O=C(c1ccc2cc1OCCOCCNc1ccn3ncc-2c3n1)N1CCOCC1

- ΔTm [1]: 0.1 °C
- deltaS [7]: 11.6 cal/mol.K
- IC50 [10]: 15 nM
- IC50 [2]: 70 nM
- ΔTm [3]: 12.3 °C
- deltaG [19]: -10.1 kcal/mol
- Kd [20]: 9 nM
- deltaH [22]: -6.78 kcal/mol
- ΔTm [4]: 1.2 °C
SMILES: C[C@H](NC(=O)c1ccc2cc1OCCOCCNc1ccn3ncc-2c3n1)c1ccncc1
- Activity (HEK-293T [5]): Non-Toxic
- Activity [6]: Non-Toxic
- EC50 (LN-229): 2200 nM
- Activity [8]: Non-Toxic
- Activity (HEK-293T [9]): Non-Toxic
- EC50 (D-247MG): 1250 nM
- Activity (HEK-293T [11]): Non-Toxic
- EC50 (T98G [12]): 2340 nM
- EC50 (U2OS [13]): > 10000 nM
- EC50 at 36 h [14]: > 10000 nM
- Activity [15]: Toxic
- Activity (HEK-293T [16]): Toxic
- Activity (HEK-293T [17]): Non-Toxic
- EC50 at 36 h [18]: > 10000 nM
- Activity [21]: Non-Toxic
- Activity (U2OS [23]): Active
- Activity (HEK-293T [24]): Toxic
- Activity (T98G [25]): Active
- EC50 (LN-18): 1970 nM

- ΔTm [1]: 1.9 °C
- IC50 [10]: 31 nM
- IC50 [2]: 71 nM
- ΔTm [3]: 12.1 °C
- ΔTm [4]: -0.9 °C
SMILES: CC(NC(=O)c1ccc2cc1OCCOCCNc1ccn3ncc-2c3n1)c1ccccc1 (configuration not stated)
